Source: PubChem BioAssay (NCI)
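Growth conditions: 96-well plates. Treatment: test compound, 48 hours, 5 concentrations. Analysis: linear interpolation between bracketing concentrations; unreached endpoints set to highest concentration. The concentration for full growth arrest is given as TGI.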

Columns and labels:
Assay in all cases: DTP human tumour cell line panel, 48 h
[1] = tested on: T-47D breast
[2] = tested on: PC-3 prostate
[3] = tested on: HL-60(TB) leukemia
[4] = tested on: SNB-75 CNS
[5] = tested on: MDA-N
[6] = tested on: SF-295 CNS
[7] = tested on: MDA-MB-231 breast
[8] = tested on: HCC-2998 colon
[9] = tested on: HCT-116 colon
[10] = tested on: SK-OV-3 ovarian
[11] = tested on: LOX IMVI melanoma
[12] = tested on: SF-268 CNS
[13] = tested on: NCI-H460 lung
[14] = tested on: HS 578T breast
[15] = tested on: KM12 colon
[16] = tested on: OVCAR-5 ovarian
[17] = tested on: SW-620 colon
[18] = tested on: A549 NSCLC
[19] = tested on: M14 melanoma
[20] = tested on: TK-10 renal

Measured: TGI

CCOC(=O)/C=C/CC(C)(C)COC(C)=O
> 10 µM: all assays above
